Test results published in the NIST ThermoML archive (doi:10.1021/je400056z).

Test: xn = mol fraction of the nth substance listed
Conditions: Liquid, Vibrating tube method

CCCCCCC [heptane] + O=C=O
Conditions	mass density [kg/m3]
312.02 K, 10986 kPa, x2 = 0.9496	729.05
312.02 K, 12001 kPa, x2 = 0.9496	747.88
312.02 K, 13001 kPa, x2 = 0.9496	763.05
312.02 K, 13981 kPa, x2 = 0.9496	776.11
312.02 K, 15000 kPa, x2 = 0.9496	787.02
312.02 K, 16006 kPa, x2 = 0.9496	797.48
312.02 K, 16997 kPa, x2 = 0.9496	806.48
312.02 K, 18005 kPa, x2 = 0.9496	814.74
312.02 K, 19001 kPa, x2 = 0.9496	822.53
312.02 K, 19995 kPa, x2 = 0.9496	829.62
312.02 K, 20996 kPa, x2 = 0.9496	836.32
312.02 K, 22002 kPa, x2 = 0.9496	842.78
312.02 K, 23003 kPa, x2 = 0.9496	848.74
312.02 K, 24007 kPa, x2 = 0.9496	854.47
312.02 K, 24361 kPa, x2 = 0.9496	856.44
312.94 K, 5011 kPa, x2 = 0.3148	693.37
312.94 K, 6008 kPa, x2 = 0.3148	694.74
312.94 K, 7004 kPa, x2 = 0.3148	696.16
312.94 K, 8002 kPa, x2 = 0.3148	697.62
312.94 K, 8997 kPa, x2 = 0.3148	699.03
312.94 K, 9991 kPa, x2 = 0.3148	700.6
312.94 K, 11000 kPa, x2 = 0.3148	701.81
312.94 K, 12009 kPa, x2 = 0.3148	703.08
312.94 K, 13002 kPa, x2 = 0.3148	704.39
312.94 K, 13992 kPa, x2 = 0.3148	705.63
312.94 K, 15009 kPa, x2 = 0.3148	706.99
312.94 K, 16009 kPa, x2 = 0.3148	708.23
312.94 K, 16997 kPa, x2 = 0.3148	709.2
312.94 K, 18018 kPa, x2 = 0.3148	710.45
312.94 K, 19015 kPa, x2 = 0.3148	711.73
312.94 K, 20006 kPa, x2 = 0.3148	712.83
312.94 K, 21008 kPa, x2 = 0.3148	713.93
312.94 K, 22010 kPa, x2 = 0.3148	715.06
312.94 K, 23004 kPa, x2 = 0.3148	716.14
312.94 K, 24017 kPa, x2 = 0.3148	717.34
312.94 K, 24997 kPa, x2 = 0.3148	718.41
312.98 K, 7014 kPa, x2 = 0.7514	729.2
312.98 K, 8012 kPa, x2 = 0.7514	733.47
312.98 K, 8996 kPa, x2 = 0.7514	737.34
312.98 K, 10005 kPa, x2 = 0.7514	741.22
312.98 K, 10989 kPa, x2 = 0.7514	744.88
312.98 K, 12007 kPa, x2 = 0.7514	748.38
312.98 K, 12994 kPa, x2 = 0.7514	751.74
312.98 K, 14005 kPa, x2 = 0.7514	754.92
312.98 K, 14990 kPa, x2 = 0.7514	758
312.98 K, 16009 kPa, x2 = 0.7514	761.15
312.98 K, 17002 kPa, x2 = 0.7514	764.01
312.98 K, 17990 kPa, x2 = 0.7514	766.8
312.98 K, 19008 kPa, x2 = 0.7514	769.54
312.98 K, 20006 kPa, x2 = 0.7514	772.19
312.98 K, 21018 kPa, x2 = 0.7514	774.69
312.98 K, 21997 kPa, x2 = 0.7514	777.23
312.98 K, 23004 kPa, x2 = 0.7514	779.67
312.98 K, 23994 kPa, x2 = 0.7514	782.07
312.98 K, 24571 kPa, x2 = 0.7514	783.46
313.03 K, 5011 kPa, x2 = 0.5085	706.14
313.03 K, 6005 kPa, x2 = 0.5085	708.31
313.03 K, 7004 kPa, x2 = 0.5085	710.37
313.03 K, 8011 kPa, x2 = 0.5085	712.42
313.03 K, 8996 kPa, x2 = 0.5085	714.37
313.03 K, 10001 kPa, x2 = 0.5085	716.4
313.03 K, 11006 kPa, x2 = 0.5085	718.29
313.03 K, 11994 kPa, x2 = 0.5085	720.05
313.03 K, 13000 kPa, x2 = 0.5085	721.92
313.03 K, 14002 kPa, x2 = 0.5085	723.71
313.03 K, 15010 kPa, x2 = 0.5085	725.36
313.03 K, 16006 kPa, x2 = 0.5085	727.16
313.03 K, 17002 kPa, x2 = 0.5085	728.84
313.03 K, 18023 kPa, x2 = 0.5085	730.55
313.03 K, 19009 kPa, x2 = 0.5085	732.08
313.03 K, 20003 kPa, x2 = 0.5085	733.69
313.03 K, 21000 kPa, x2 = 0.5085	735.25
313.03 K, 22016 kPa, x2 = 0.5085	736.75
313.03 K, 23006 kPa, x2 = 0.5085	738.31
313.03 K, 24019 kPa, x2 = 0.5085	739.74
313.03 K, 25004 kPa, x2 = 0.5085	741.18
313.08 K, 2007 kPa, x2 = 0.0218	670.88
313.08 K, 3009 kPa, x2 = 0.0218	671.95
313.08 K, 4008 kPa, x2 = 0.0218	673.02
313.08 K, 5014 kPa, x2 = 0.0218	674.05
313.08 K, 6010 kPa, x2 = 0.0218	675.07
313.08 K, 7005 kPa, x2 = 0.0218	676.19
313.08 K, 8174 kPa, x2 = 0.0218	677.13
313.08 K, 9005 kPa, x2 = 0.0218	678.13
313.08 K, 10008 kPa, x2 = 0.0218	679.18
313.08 K, 11000 kPa, x2 = 0.0218	680.15
313.08 K, 12009 kPa, x2 = 0.0218	681.11
313.08 K, 13002 kPa, x2 = 0.0218	682.02
313.08 K, 14006 kPa, x2 = 0.0218	683
313.08 K, 15004 kPa, x2 = 0.0218	683.85
313.08 K, 16007 kPa, x2 = 0.0218	684.89
313.08 K, 17002 kPa, x2 = 0.0218	685.71
313.08 K, 18005 kPa, x2 = 0.0218	686.44
313.08 K, 19010 kPa, x2 = 0.0218	687.37
313.08 K, 20009 kPa, x2 = 0.0218	688.24
313.08 K, 21004 kPa, x2 = 0.0218	689.1
313.08 K, 22010 kPa, x2 = 0.0218	689.97
313.08 K, 23003 kPa, x2 = 0.0218	690.81
313.08 K, 24007 kPa, x2 = 0.0218	691.63
313.08 K, 24906 kPa, x2 = 0.0218	692.41
322.85 K, 5012 kPa, x2 = 0.3148	682.49
322.85 K, 6012 kPa, x2 = 0.3148	684.11
322.85 K, 7008 kPa, x2 = 0.3148	685.75
322.85 K, 8009 kPa, x2 = 0.3148	687.35
322.85 K, 8996 kPa, x2 = 0.3148	688.86
322.85 K, 10005 kPa, x2 = 0.3148	690.36
322.85 K, 11012 kPa, x2 = 0.3148	691.87
322.85 K, 11996 kPa, x2 = 0.3148	693.32
322.85 K, 13003 kPa, x2 = 0.3148	694.75
322.85 K, 14006 kPa, x2 = 0.3148	696.09
322.85 K, 15010 kPa, x2 = 0.3148	697.48
322.85 K, 16003 kPa, x2 = 0.3148	698.79
322.85 K, 17009 kPa, x2 = 0.3148	700.14
322.85 K, 18001 kPa, x2 = 0.3148	701.39
322.85 K, 19012 kPa, x2 = 0.3148	702.67
322.85 K, 20007 kPa, x2 = 0.3148	703.86
322.85 K, 21000 kPa, x2 = 0.3148	705.12
322.85 K, 22017 kPa, x2 = 0.3148	706.33
322.85 K, 23010 kPa, x2 = 0.3148	707.55
322.85 K, 23985 kPa, x2 = 0.3148	708.71
322.85 K, 25004 kPa, x2 = 0.3148	709.93
322.91 K, 8013 kPa, x2 = 0.7514	707.83
322.91 K, 8994 kPa, x2 = 0.7514	712.85
322.91 K, 10015 kPa, x2 = 0.7514	717.65
322.91 K, 10996 kPa, x2 = 0.7514	722.08
322.91 K, 12005 kPa, x2 = 0.7514	726.29
322.91 K, 13025 kPa, x2 = 0.7514	730.31
322.91 K, 13986 kPa, x2 = 0.7514	733.99
322.91 K, 15009 kPa, x2 = 0.7514	737.66
322.91 K, 16002 kPa, x2 = 0.7514	741.14
322.91 K, 17007 kPa, x2 = 0.7514	744.51
322.91 K, 17997 kPa, x2 = 0.7514	747.63
322.91 K, 19009 kPa, x2 = 0.7514	750.74
322.91 K, 20004 kPa, x2 = 0.7514	753.71
322.91 K, 21008 kPa, x2 = 0.7514	756.6
